According to US4564619A, “Carbostyril derivative” (Otsuka Pharmaceutical Co., Ltd., priority 1982, dated 1986):

What was measured:
[1] = test system: collagen-induced aggregation in rabbit platelets; assay: Inhibition of collagen-induced platelet aggregation in rabbit platelet rich plasma; format: cell-based; conditions: Oryctolagus cuniculus, read-out: Inhibition rate of collagen-induced aggregation; for inhibition at 100 µM (stock): Concentration of the test compound solution 10^-4 mole; for inhibition at 10 µM (stock): Concentration of the test compound solution 10^-5 mole
Description: (§1) The platelet aggregation inhibitory effect was measured by using a Platelet Aggregation Tracer Model PAT-6M (manufactured by Nikoh Bio-Science Co., Ltd.) by a method according to Kimura, et al., [IGAKU-NO-AYUMI (Progress in Medicine), Vol. 114, No. 9, pp. 718-727, Aug. 30, 1980, and Nature, pp. 927-929, 1962].
(§2) The blood sample used for the test was a 1:9 (by volume) mixture of "3.8%-CITRATE"® (a registered trademark for 3.8%-sodium citrate, manufactured by Green Cross Corp.) and whole blood collected from rabbits. Said sample was subjected to 10-minute centrifugal separation at 1,000 r.p.m. (200xG) to obtain a platelet rich plasma (PRP). The PRP thus obtained was separated, and the remaining blood sample was further subjected to 15-minute centrifugal separation at 3,000 r.p.m. (2,000xG) to obtain a platelet poor plasma (PPP).
(§3) The number of platelets in the PRP was counted by the Brecher-Clonkite Method, and the PRP was diluted with the PPP to prepare a PRP sample with a platelet concentration of 600,000/microliter to prepare for an adenosine diphosphate (ADP)-induced aggregation test, and a collagen-induced aggregation test. 0.2 Milliliter of the PRP sample was added to 2 microliters of a solution of a test compound of predetermined concentration and this mixture was placed in a 37° C. thermostat for one minute. Then 20 microliters of an ADP or collagen solution was added to the mixture. In this test, the ADP solution was prepared by adjustment to a concentration of 7.5×10^-5 M by using Auren-Beronal buffer solution (pH 7.35). Further, the collagen solution was prepared by adjustment to a concentration of 200 micrograms/ml by using collagen reagent of "Holm"® (manufactured by Hormon-Chemie Munchen, GmbH.) which was diluted wih a physiological saline solution.
(§4) The transmittance of the resultant test mixture was determined and the change of transmittance was recorded by using the aggregometer at a stirrer speed of 1,100 r.p.m.
(§5) The platelet aggregation inhibitory effect of the test compound was measured in terms of inhibition rate (%) with respect to the aggregation rate of the controls. The aggregation rate was calculated from the following formula.
(§6) Aggregation rate=[(c-a)/(b-a)]×100
(§7) The percent inhibition is calculated from the following formula.
(§8) Inhibition rate (%)=[(A-B)/A]×100
(§9) The inhibitory effect of the test compounds on collagen-induced aggregation in rabbit platelets is shown in Table 1, similarly such effect on ADP-induced aggregation in rabbit platelets is shown in Table 2.

[2] = test system: ADP-induced aggregation in rabbit platelets; assay: Inhibition of ADP-induced platelet aggregation in rabbit platelet rich plasma; format: cell-based; conditions: Oryctolagus cuniculus, read-out: Inhibition rate of ADP-induced aggregation; for inhibition at 100 µM (stock): Concentration of the test compound solution 10^-4 mole; for inhibition at 10 µM (stock): Concentration of the test compound solution 10^-5 mole
Description: as §1, §2, §3, §4, §5, §6, §7, §8, §9

[3] = Change of blood pressure, intravenous administration, anesthetized dog; format: in vivo; set-up: unit not given here; conditions: femoral artery
Description: The change of blood flow in coronary artery and the change of blood pressure were measured by a method according to Yakura et al., [Japan Journal of Pharmacology, Vol. 57, pages 380-391 (1961)] and according to Taira, et al. [Clin. Exp. Pharmacol. Physiol., Vol. 6, pages 301-316, (1976)].
An adult bastard dog of either sex weighing 8-13 kg was anesthetized with sodium pentobarbital at the rate of 30 mg/kg by intraveneous administration, then the dog was fixed in supination and was theracotomized under a condition of forced breathing. After another intraveneous administration of sodium heparin at the rate of 500 U/kg, 100 U/kg per hour, the dog was subjected to the following experiments.
(2) Intraveneous administration
Morawitz's cannula was cannulated to the coronary sinus venosus through the auricula dextra cordis, and the blood in vein was circulated to the right carotid. The blood flow was measured by an electromagnetic blood flow meter equipped with a blood flow observation probe in the extracorporeal circulation path of the vein. The systolic force was measured by a systolometer (pick-up) placed at the left ventricle of heart, the blood pressure was measured from the femoral artery, and the heart rate was measured from the pulse. A compound to be tested was administered through the cannula being cannulated in femoral vein. The increased amount of the blood flow in coronary artery after the administration of the test compound is shown in Table 4, also the change of blood pressure is shown in Table 5.

For `COC(=O)C1=C(C)NC(C)=C(C(=O)OCCCCOc2ccc3c(c2)CCC(=O)N3)C1c1ccccc1` (stereo not drawn) [Compound 28, 6-[4-(2,6-Dimethyl-5-methoxycarbonyl-4-phenyl-1,4-dihydropyridin-3-carboxy)butoxy]-3,4-dihydrocarbostyril], the inhibition at 100 µM (stock) [1] was 63%, the inhibition at 100 µM (stock) [2] was 52% and the “Change of blood pressure” value ([3]; 3 micrograms/kg) was -1. For the same compound, the “Change of blood pressure” value ([3]; 10 micrograms/kg) was -10, the “Change of blood pressure” value ([3]; 30 micrograms/kg) was -7 and the “Change of blood pressure” value ([3]; 100 micrograms/kg) was -20. The “Change of blood pressure” value ([3]; 300 micrograms/kg) was -47.
For `COC(=O)C1=C(C)NC(C)=C(C(=O)OCCCCOc2ccc3c(c2)CCC(=O)N3)C1c1ccccc1C` (stereo not drawn) [Compound 29, 6-{4-[2,6-Dimethyl-5-methoxycarbonyl-4-(2-methylphenyl-1,4-dihydropyridin-3-carboxy)]-butoxy}-3,4-dihydrocarbostyril], the inhibition at 100 µM (stock) [1] was 69%, the inhibition at 100 µM (stock) [2] was 59% and the “Change of blood pressure” value ([3]; 3 micrograms/kg) was -7. The “Change of blood pressure” value ([3]; 10 micrograms/kg) was -23, the “Change of blood pressure” value ([3]; 30 micrograms/kg) was -45 and the “Change of blood pressure” value ([3]; 100 micrograms/kg) was -70. For the same compound, the “Change of blood pressure” value ([3]; 300 micrograms/kg) was -80.
`COC(=O)C1=C(C)NC(C)=C(C(=O)OCCCCOc2ccc3c(c2)CCC(=O)N3)C1c1ccccc1C(=O)OC` (stereo not drawn) [Compound 30, 6-{4-[2,6-Dimethyl-5-methoxycarbonyl-4-(2-methoxycarbonyl)-1,4-dihydropyridin-3-carboxy]butoxy}-3,4-dihydrocarbostyril] gave an inhibition at 100 µM (stock) [1] of 100%, an inhibition at 10 µM (stock) [1] of 3% and an inhibition at 100 µM (stock) [2] of 89%. For the same compound, the “Change of blood pressure” value ([3]; 10 micrograms/kg) was -1, the “Change of blood pressure” value ([3]; 30 micrograms/kg) was -16 and the “Change of blood pressure” value ([3]; 100 micrograms/kg) was -38.
For `COC(=O)C1=C(C)NC(C)=C(C(=O)OCCCOc2cc(=O)[nH]c3ccccc23)C1c1cccc([N+](=O)[O-])c1` (stereo not drawn) [Compound 37, 4-{3-[2,6-Dimethyl-5-methoxycarbonyl-4-(3-nitrophenyl)-1,4-dihydropyridin-3-carboxy]propoxy}carbostyril], the inhibition at 100 µM (stock) [1] was 15%, the inhibition at 100 µM (stock) [2] was 17% and the “Change of blood pressure” value ([3]; 30 micrograms/kg) was -1. For the same compound, the “Change of blood pressure” value ([3]; 100 micrograms/kg) was -5 and the “Change of blood pressure” value ([3]; 300 micrograms/kg) was -18.
With `COC(=O)C1=C(C)NC(C)=C(C(=O)OCCCOc2ccc3[nH]c(=O)cc(C)c3c2)C1c1cccc([N+](=O)[O-])c1` (stereo not drawn) [Compound 38, 4-Methyl-6-{3-[2,6-dimethyl-5-methoxycarbonyl-4-(3-nitrophenyl)-1,4-dihydropyridin-3-carboxy]propoxy}carbostyril] the inhibition at 100 µM (stock) [1] was 45%, the inhibition at 100 µM (stock) [2] was 31% and the “Change of blood pressure” value ([3]; 10 micrograms/kg) was -2. For the same compound, the “Change of blood pressure” value ([3]; 30 micrograms/kg) was -10 and the “Change of blood pressure” value ([3]; 100 micrograms/kg) was -35.
Work on `COC(=O)C1=C(C)NC(C)=C(C(=O)OCC(COc2ccc3[nH]c(=O)ccc3c2)OC(C)=O)C1c1cccc([N+](=O)[O-])c1` (stereo not drawn) [Compound 43, 6-{3-[2,6-Dimethyl-5-methoxycarbonyl-4-(3-nitrophenyl)-1,4-dihydropyridin-3-carboxy]-2-acetoxypropoxy}carbostyril] yielded an inhibition at 100 µM (stock) [1] of 100%, an inhibition at 10 µM (stock) [1] of 100% and an inhibition at 100 µM (stock) [2] of 100%. For the same compound, the inhibition at 10 µM (stock) [2] was 100%, the “Change of blood pressure” value ([3]; 30 micrograms/kg) was -4 and the “Change of blood pressure” value ([3]; 100 micrograms/kg) was -16. The “Change of blood pressure” value ([3]; 300 micrograms/kg) was -23.
Work on `COC(=O)C1=C(C)NC(C)=C(C(=O)OCCCOc2ccc3[nH]c(=O)ccc3c2)C1c1ccccc1` (stereo not drawn) [Compound 44, 6-[3-(2,6-Dimethyl-5-methoxycarbonyl-4-phenyl-1,4-dihydropyridin-3-carboxy)propoxy]-carbostyril] yielded an inhibition at 100 µM (stock) [1] of 100%, an inhibition at 10 µM (stock) [1] of 25% and an inhibition at 100 µM (stock) [2] of 100%. The inhibition at 10 µM (stock) [2] was 20%, the “Change of blood pressure” value ([3]; 10 micrograms/kg) was -1 and the “Change of blood pressure” value ([3]; 30 micrograms/kg) was -3. The “Change of blood pressure” value ([3]; 100 micrograms/kg) was -6 and the “Change of blood pressure” value ([3]; 300 micrograms/kg) was -52.
